These results are taken from patent US20050112064A1, “DNA-dependent MRI contrast agents” (priority 2003, published 2005).

“Also recorded” adds a separate entry of the source. Like-named read-outs stand apart in the source and are kept apart here. Where no end group is shown, it is not given here. Some results are limits rather than exact numbers.

The subject of data set [1] is supercoiled plasmid DNA (pBR322). Put plainly: DNA gel shift assay (agarose gel electrophoresis). The following applies: 5-25 μM ligand, 15 minutes, pBR322, 10 mM Tris pH 8.0. The format is binding. On the procedure: DNA Gel Shift Assays. The affinity of EuP3, EuP2, and each free peptide for supercoiled plasmid DNA was examined by agarose gel electrophoresis. Plasmid (pBR322, New England Biolabs, Inc.) was incubated for 15 minutes at room temperature with increasing concentrations of each ligand (5-25 μM), prior to the addition of loading dye. Each lane contained 1 μg plasmid (50 μM base pairs) in 10 mM Tris buffer at pH 8.0.
Background: Mobility shift assays separate free from complexed probe on a gel.

Data set [2] in a line: Hydrolysis of bis-nitrophenylphosphate (BNPP) followed spectrophotometrically. The following applies: 37° C., BNPP 500 μM. The format is biochemical. On the procedure:
Hydrolytic Phosphate Cleavage. Because the EF-Hand is physiologically strictly a structural motif, an isolated Ca-binding loop's ability to affect hydrolytic cleavage was addressed. The hydrolysis of bis-nitrophenylphosphate (BNPP) was followed spectrophotometrically under turnover conditions. The absorbance increase at 400 nm due to liberated 4-nitrophenolate was observed over the initial 10-14 hours of the reaction (<10% BNPP converted). […] Plots of absorbance vs. time were converted to concentration units (ε=18,500 M^−1 cm^−1) to give first order rate constants (Sardesai et al., 1994).

Data set [3] can be described thus: Relaxivity (water proton relaxation) without DNA. The settings on record: 37° C., 50 mM HEPES, pH 7.4. In kind it is physicochemical. On the procedure:
(§1) P3W peptide ([…], Gd-binding EF-hand site is shaded) was synthesized and purified (>95% by HPLC) by the Caltech Peptide Synthesis Facility, Pasadena, Calif. The gadolinium complex was prepared by dissolving P3W in 50 mM HEPES buffer, pH 7.4, and adding 0.8 equivalents Gd(NO3)3 to give a 500 μM stock solution. Peptide concentration was estimated by absorbance (ε280=7290 M^−1cm^−1); the absence of uncomplexed Gd^3+ was confirmed by colorometric analysis with xylenol orange. All Gd concentrations were determined by ICP-MS (Agilent 7500). Relaxation rates were determined at 20 and 60 MHz, 37° C. using Broker NMS 120 and Brtiker mg60 Minispec spectrometers, respectively. NMRD profiles were recorded on a Koenig-Brown field cycling relaxometer; phantoms were imaged on a GE 1.5T clinical imager.

The test system of data set [4] is 14-mer d.s. DNA: self-complementary 5′-GAGCTAATTAGCTC-3′. As to the kind of experiment: Relaxivity in the presence of one equivalent DNA. The settings on record: 37° C., 50 mM HEPES, pH 7.4, one equivalent DNA. In kind it is physicochemical. On the procedure:
as §1

Data set [5] is described as follows: T1-weighted MR imaging of phantoms at 1.5 tesla. The following applies: 1.5 T, HEPES buffer pH 7.4, ambient temperature. The procedure: FIG. 6. T1-weighted MR images at 1.5 tesla of phantoms in HEPES buffer, pH 7.4, ambient temperature. (A) 3D SPGR TR=40, TE=3.1, α=75°. Images: a) HEPES; b) 80 μM P3W; c) 80 μM DNA (14-mer duplex); d) 115 μM GdDTPA; e) 115 μM GdDTPA+DNA (1:1); f) 8.6 μM GdP3W+DNA (1:1); g) 86 μM GdP3W; h) 86 μM GdP3W+DNA (1:1); i) 86 μM GdP3W+DNA (1:1)+NaCl (150 μM). (B) 3D SPGR TR=40, TE=4.0, α=40°. Images: a) HEPES, b) 48 μM GdDTPA, c) 48 μM GdP3W; d) 48 μM GdP3W+DNA.
as §1

The conditions of data set [6]: cited from earlier work.
Data set [7] deals with supercoiled, double-stranded DNA. Put plainly: Cleavage of supercoiled plasmid monitored by agarose gel electrophoresis. In kind it is biochemical. The procedure:
The conversion of supercoiled plasmid (type I) to open circular (type II), linear (type III), or smaller fragments was monitored by agarose gel electrophoresis. Because the synthetic peptides bind strongly to DNA, thus preventing the observation of products, the peptides were chelated prior to electrophoresis (Falke et al., 1994). At the point each reaction was quenched (0.1 M EDTA), a suspension of neutral, washed, cation resin (Amberlyst, 10-20 μL) was incubated with each sample for 30 minutes, spun down, and the supernatent loaded into wells. After 24 hours of reaction (incubated at 37° C.), the concentration-dependent formation of open circular plasmid was observed. […] Over a 10-300 μM EuP3 gradient, nicking occurred from 10-150 μM, with the greatest amount of cleavage at 30 μM EuP3.
Sequence Selective DNA Cleavage. […] This cleavage is not dependent on the strain inherent in supercoiled plasmid, as cleavage of linearized ^32P-labeled DNA oligonucleotides was observed as well. Labeled fragments were incubated with Ce(NH3)6(NO3)4 and varying concentrations of peptides P3 or P3W at 37° C. overnight and analyzed by acrylamide gel electrophoresis. Cleavage was concentration dependent, and distinct between metallopeptides.

In data set [8] the test system is T1, P3 (engrailed HTH / consensus EF-hand chimeric peptide) (synthetic construct).
T1 sequence: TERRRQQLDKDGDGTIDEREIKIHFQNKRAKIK
As to the kind of experiment: EMSA. The settings on record: Eu(III) complex EuP3; agarose gel shift, estimate from quantified band volumes; 10 mM Tris pH 8.0, room temp.

Data set [9] addresses P4a (chimeric peptide: alpha2 and alpha3 of engrailed, minus the last turn of alpha2 and the beta-turn, with calmodulin loop I). Put plainly: measured dissociation constants for EuP4a; method not stated; self-association in the presence of Eu(III).
Where [10] appears, read: 10 μM Eu/10 μM peptide, pH 7.7, 10 mM Tris buffer.
Setting [11] is: 25 μM Eu/25 μM peptide, pH 7.7, 10 mM Tris buffer.
The mark [12] stands for this setting: 25 μM Eu/50 μM peptide, pH 7.7, 10 mM Tris buffer.

Turning to `[Cl][Eu]([Cl])[Cl]` [EuCl3, reference compound], the “gel shift / DNA affinity (in words)” value in [1] is listed as “not”. Also, the “Rates (K(obs)) of BNPP cleavage” value in data set [2] (10 μM Eu/0 peptide, pH 7.7, 5 mM Tris buffer) is on record as 5.2 ± 0.6 s^−1 × 10^7; in [2] (12 μM Eu/0 peptide, pH 7.7, 5 mM Tris buffer) it was 5.7 ± 0.3 s^−1 × 10^7.

As to `O=C([O-])CN(CCN(CC(=O)[O-])CC(=O)O)CCN(CC(=O)[O-])CC(=O)O.[Gd+3]` [GdDTPA], the r1 stood at 4.6 mM⁻¹ s⁻¹ in data set [3] (20 MHz) and 3.5 mM⁻¹ s⁻¹ in [3] (60 MHz). Also, the results for the “r1 + DNA” value in [4] (20 MHz) and in [4] (60 MHz) were 4.9 mM⁻¹ s⁻¹ and 3.5 mM⁻¹ s⁻¹, respectively. In addition, the “signal / contrast in T1-weighted image, with DNA (1:1)” value in [5] is recorded as “did not increase the signal”. Moreover, in data set [5], the “signal / contrast in T1-weighted image, without DNA” value is “difficult to discern”.

For the molecule `O=C([O-])CN(CCN(CC(=O)[O-])C[C@H](COP(=O)([O-])OC1CCC(c2ccccc2)(c2ccccc2)CC1)N(CC(=O)[O-])CC(=O)[O-])CC(=O)[O-].[Gd+3].[H+].[H+].[H+]` [MS-325], the relaxivity in data set [6] (60 MHz) is 23 mM⁻¹ s⁻¹.

As for “EuP3: Eu(III) metallopeptide of P3 (TERRRQQLDKDGDGTIDEREIKIHFQNKRAKIK)”, the “gel shift / DNA affinity (in words)” value in data set [1] is “gel shift and disappearance of type I plasmid occurs; also recorded: DNA-binding affinity in the micromolar regime”. In addition, the “Rates (K(obs)) of BNPP cleavage” value in data set [2] (setting [10]) was 6.0 s^−1 × 10^7; in data set [2] (setting [11]), 7.3 s^−1 × 10^7; in data set [2] (setting [12]), 20.6 s^−1 × 10^7; in [2] (50 μM Eu/50 μM peptide, pH 7.7, 5 mM Tris buffer) it was 17.5 ± 4 s^−1 × 10^7; in [2] (50 μM Eu/100 μM peptide, pH 7.7, 5 mM Tris buffer) it was 11.5 ± 4 s^−1 × 10^7. Also, the “dependence of cleavage activity on increasing concentration” value in [7] was “falls off with increasing concentration”. The “concentration range in which nicking occurred” value in [7] (10-300 μM EuP3 gradient) lay within 10 to 150 µM. Moreover, the “concentration with the greatest amount of cleavage” value in [7] (10-300 μM EuP3 gradient) amounted to 30 µM. Moreover, the “cleavage of supercoiled DNA (in words)” value in data set [7] (37° C.) was “catalyzes the cleavage of supercoiled, double-stranded DNA”.

Regarding “EuP4a: Eu(III) metallopeptide of P4a (TERRRFDKDGNGYISAAELRHVKIWFQNKRAKIK)”, the “Rates (K(obs)) of BNPP cleavage” value in data set [2] (setting [10]) amounted to 11.3 s^−1 × 10^7; in [2] (setting [11]), 56.3 s^−1 × 10^7; in [2] (setting [12]), 62.0 s^−1 × 10^7; in data set [2] (50 μM Eu/50 μM peptide, pH 7.7, 10 mM Tris buffer) it was 149.5 s^−1 × 10^7; in data set [2] (50 μM Eu/100 μM peptide, pH 7.7, 10 mM Tris buffer), 212.0 s^−1 × 10^7. In addition, in data set [7], the “dependence of cleavage activity on increasing concentration” value is “does not”.

Turning to Gd-TREN-1-Me=3,2-HOPO, the relaxivity in data set [6] (20 MHz and 37° C.) is 6 to 11 mM⁻¹ s⁻¹.

As a reminder, the Kd is the equilibrium constant for the complex coming apart. On to pBR322 supercoiled plasmid, for which the Kd in [8] is 20 µM.

B1: P4a (chimeric peptide: alpha2 and alpha3 of engrailed, minus the last turn of alpha2 and the beta-turn, with calmodulin loop I) (peptide)
peptide: TERRRFDKDGNGYISAAELRHVKIWFQNKRAKIK
modifications: also: Eu(III) complex
For B1, the Kdim (dimerization constant) in data set [9] was more than 300 µM.
